The text below walks through data of ChEMBL document CHEMBL1146191, “Synthesis and evaluation of novel 1-(2-acylhydrazinocarbonyl)-cycloalkyl carboxamides as interleukin-1beta converting enzyme (ICE) inhibitors” (Bioorg Med Chem Lett, 2006).

Bounds are passed on as bounds.

One assay deals with THP-1. Put plainly: Inhibition of IL1-beta secretion in human THP1 cells. The assay is classed as functional, cell-based.
Another assay addresses Caspase-8 (Homo sapiens, UniProt Q14790). The experiment in a line: Inhibition of caspase8.
The next assay concerns the target T1, Caspase-1 (Homo sapiens, UniProt P29466).
T1 sequence (P29466 whole entry): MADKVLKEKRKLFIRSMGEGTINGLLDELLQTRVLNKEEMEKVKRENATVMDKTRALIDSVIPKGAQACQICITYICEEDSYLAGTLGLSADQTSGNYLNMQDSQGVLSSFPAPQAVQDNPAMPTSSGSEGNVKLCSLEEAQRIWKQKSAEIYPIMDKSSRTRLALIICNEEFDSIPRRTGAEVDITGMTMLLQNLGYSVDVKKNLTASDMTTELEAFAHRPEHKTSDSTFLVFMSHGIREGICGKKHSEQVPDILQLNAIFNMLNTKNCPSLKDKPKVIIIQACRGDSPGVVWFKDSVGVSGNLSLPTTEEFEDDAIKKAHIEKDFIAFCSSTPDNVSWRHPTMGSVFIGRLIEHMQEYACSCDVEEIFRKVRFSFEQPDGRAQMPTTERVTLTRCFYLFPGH
The experiment in a line: Inhibition of ICE.

For another assay, the target named is T2, Caspase-3 (Homo sapiens, UniProt P42574).
T2 sequence (P42574 whole entry): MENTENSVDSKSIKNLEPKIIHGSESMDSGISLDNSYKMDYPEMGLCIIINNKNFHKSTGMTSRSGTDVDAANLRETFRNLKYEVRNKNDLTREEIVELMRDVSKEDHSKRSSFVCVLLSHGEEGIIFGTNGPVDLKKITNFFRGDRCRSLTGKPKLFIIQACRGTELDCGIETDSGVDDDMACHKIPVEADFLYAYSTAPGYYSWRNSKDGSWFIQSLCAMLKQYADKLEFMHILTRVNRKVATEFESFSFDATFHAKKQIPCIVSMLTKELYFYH
Put plainly: Inhibition of caspase3.

Caspase-8, sequence (Q14790 217-374 limits assumed): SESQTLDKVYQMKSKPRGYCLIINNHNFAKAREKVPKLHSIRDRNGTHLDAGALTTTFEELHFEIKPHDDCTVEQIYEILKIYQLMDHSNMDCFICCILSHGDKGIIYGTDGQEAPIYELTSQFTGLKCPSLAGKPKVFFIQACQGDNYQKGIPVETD
Caspase-8, sequence (Q14790 385-479 limits assumed): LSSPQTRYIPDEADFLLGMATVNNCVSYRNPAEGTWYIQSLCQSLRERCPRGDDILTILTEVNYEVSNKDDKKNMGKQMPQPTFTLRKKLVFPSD

As usually defined, the IC50 is the concentration needed to halve the response being measured. Lower therefore signals greater potency in that assay. On to `O=C1C[C@H](NC(=O)C2(C(=O)NNC(=O)c3cccc4ccccc34)CCCCC2)C(O)O1` (stereo not given in full), for which the IC50 was 450 nM in the assay with THP-1, 70 nM at Caspase-8, 50 nM on Caspase-1 and more than 10000 nM against Caspase-3.
As for `Cc1cccc(C(=O)NNC(=O)C2(C(=O)N[C@H]3CC(=O)OC3O)CCCC2)c1` (stereo not given in full), the IC50 is 2000 nM in the assay on THP-1, 1200 nM at Caspase-8, 490 nM against Caspase-1 and more than 10000 nM against Caspase-3.
Consider `Cc1cccc(C)c1C(=O)NNC(=O)C1(C(=O)N[C@H]2CC(=O)OC2O)CCCCC1` (stereo not given in full), for which the IC50 with THP-1 is not below 2500 nM; against Caspase-8, 230 nM; at Caspase-1 it was not below 10000 nM; against Caspase-3, more than 10000 nM.
In the case of `O=C1C[C@H](NC(=O)C2(C(=O)NNC(=O)c3ccc4ccccc4c3)CCC2)C(O)O1` (stereo not given in full), the IC50 at Caspase-8 is 6300 nM; on Caspase-1, 240 nM; against Caspase-3, more than 10000 nM.
With `O=C1C[C@H](NC(=O)C2(C(=O)NNC(=O)c3ccc4ccccc4c3)CCCCC2)C(O)O1` (stereo not given in full), the IC50 with THP-1 is 790 nM; on Caspase-8 it was 2600 nM; at Caspase-1, 90 nM; at Caspase-3, more than 10000 nM.
Turning to `O=C1C[C@H](NC(=O)C2(C(=O)NNC(=O)c3ccc4ccccc4c3)Cc3ccccc3C2)C(O)O1` (stereo not given in full), the IC50 with THP-1 was 500 nM; at Caspase-8 it was 2100 nM; against Caspase-1, 30 nM; against Caspase-3, more than 10000 nM.
The corresponding values for `O=C1C[C@H](NC(=O)C2(C(=O)NNC(=O)c3ccc4ccccc4c3)CC2)C(O)O1` (stereo not given in full) are 6400 nM, not below 10000 nM, 2900 nM and more than 10000 nM.
Take `O=C1C[C@H](NC(=O)C2(C(=O)NNC(=O)c3cccc4ccccc34)Cc3ccccc3C2)C(O)O1` (stereo not given in full): the IC50 in the assay on THP-1 is 690 nM; at Caspase-8 it was 420 nM; on Caspase-1, 40 nM; against Caspase-3 it was more than 10000 nM.
The corresponding values for `O=C1C[C@H](NC(=O)C2(C(=O)NNC(=O)c3cccc4ccccc34)CCCC2)C(O)O1` (stereo not given in full) are 480 nM, 90 nM, 40 nM and more than 10000 nM.
Regarding `Cc1ccccc1C(=O)NNC(=O)C1(C(=O)N[C@H]2CC(=O)OC2O)CCC1` (stereo not given in full), the half-maximal inhibitory concentration (IC50) was 610 nM in the assay with THP-1, 310 nM at Caspase-8, 310 nM on Caspase-1 and more than 10000 nM at Caspase-3.
For the molecule `Cc1ccc(C(=O)NNC(=O)C2(C(=O)N[C@H]3CC(=O)OC3O)CCC2)cc1` (stereo not given in full), the IC50 is 6900 nM in the assay with THP-1, 4300 nM at Caspase-8, 580 nM against Caspase-1 and more than 10000 nM on Caspase-3.
The corresponding values for `Cc1cccc(C(=O)NNC(=O)C2(C(=O)N[C@H]3CC(=O)OC3O)CCC2)c1` (stereo not given in full) are 620 nM, 2700 nM, 150 nM and more than 10000 nM.
The corresponding values for `O=C1C[C@H](NC(=O)C2(C(=O)NNC(=O)c3cccc4ccccc34)CCC2)C(O)O1` (stereo not given in full) are 470 nM, 130 nM, 50 nM and more than 10000 nM.
Turning to `Cc1cccc(C(=O)NNC(=O)C2(C(=O)N[C@H]3CC(=O)OC3O)CCCCC2)c1` (stereo not given in full), the IC50 was 470 nM with THP-1, 3900 nM at Caspase-8, 430 nM at Caspase-1 and more than 10000 nM on Caspase-3.
As for `COc1cccc(OC)c1C(=O)NNC(=O)C1(C(=O)N[C@H]2CC(=O)OC2O)CCCCC1` (stereo not given in full), the IC50 in the assay with THP-1 is not below 2500 nM; against Caspase-8, 300 nM; against Caspase-1, 700 nM; against Caspase-3 it was more than 10000 nM.
The corresponding values for `O=C1C[C@H](NC(=O)C2(C(=O)NNC(=O)c3ccc4ccccc4c3)CCCC2)C(O)O1` (stereo not given in full) are 570 nM, 3200 nM, 150 nM and more than 10000 nM.
With `COc1cccc(C(=O)NNC(=O)C2(C(=O)N[C@H]3CC(=O)OC3O)CCCCC2)c1` (stereo not given in full), the IC50 was 1300 nM in the assay with THP-1, 1800 nM at Caspase-8, 240 nM on Caspase-1 and more than 10000 nM on Caspase-3.
Consider `COc1cccc(C(=O)NNC(=O)C2(C(=O)N[C@H]3CC(=O)OC3O)CCCC2)c1` (stereo not given in full), for which the IC50 in the assay on THP-1 is 550 nM; at Caspase-8, 1170 nM; on Caspase-1, 200 nM; against Caspase-3 it was more than 10000 nM.
The corresponding values for `COc1cccc(C(=O)NNC(=O)C2(C(=O)N[C@H]3CC(=O)OC3O)CC2)c1` (stereo not given in full) are not below 10000 nM, not below 10000 nM, not below 10000 nM and more than 10000 nM.
In the case of `COc1cccc(C(=O)NNC(=O)C2(C(=O)N[C@H]3CC(=O)OC3O)CCC2)c1` (stereo not given in full), the IC50 in the assay on THP-1 was 400 nM; against Caspase-8, 2200 nM; against Caspase-1 it was 260 nM; against Caspase-3, more than 10000 nM.
The corresponding values for `Cc1cccc(C(=O)NNC(=O)C2(C(=O)N[C@H]3CC(=O)OC3O)Cc3ccccc3C2)c1` (stereo not given in full) are not below 2500 nM, 3120 nM, 430 nM and more than 10000 nM.
Regarding `CCO[C@@H]1OC(=O)C[C@@H]1NC(=O)[C@@H]1CCCN2C(=O)CC[C@H](NC(=O)c3nccc4ccccc34)C(=O)N12` [PRALNACASAN], the half-maximal inhibitory concentration (IC50) was 40 nM against Caspase-8 and 3.6 nM at Caspase-1.
